Measurements from patent US20100298141A1, “SUBSTITUTED PYRIDINE N-OXIDE HERBICIDES” (E. I. DU PONT DE NEMOURS AND COMPANY, priority 2007, published 2010).

Legend:
prickly sida = assay: Test F preemergence test; assay type: in vivo, Sida spinosa; settings: scale 0 to 100
Summary of the method: (§1)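 Visual ratings relative to controls, taken after 14 to 21 days in a greenhouse. Test chemicals, formulated in a surfactant-containing non-phytotoxic solvent mixture, were applied preemergence to sown seeds or postemergence to sugarcane plants.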

crabgrass = assay: Test A pre-/postemergence greenhouse test; assay type: in vivo, Digitaria sanguinalis; settings: for Crabgrass, Large plant response rating: 0 to 100 scale; for Plant response rating, Crabgrass, Large: 0 to 100 scale where 0 is no effect and 100 is complete control
Summary of the method: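 Two application timings were run side by side in the greenhouse. Before emergence, compound went onto the soil surface of loam–sand pots as a directed spray; after emergence, plants at 2–10 cm and the one- to two-leaf stage were treated. Visual injury versus controls was rated at approximately day ten.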

bermudagrass = assay: Test F preemergence test; assay type: in vivo, Cynodon dactylon; settings: scale 0 to 100
Summary of the method: as §1

common ragweed [1] = assay: Test F preemergence test; assay type: in vivo, Ambrosia elation; settings: scale 0 to 100
Summary of the method: as §1

kochia = assay: Test C pre-/postemergence test; assay type: in vivo, Kochia scoparia
Summary of the method: (§2)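 Seeds were planted and treated preemergence with test chemical in a non-phytotoxic solvent mixture containing surfactant. Postemergence applications of the same formulation went onto plants 2 to 18 cm tall (1- to 4-leaf stage). A dash marks no test result.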

green foxtail = assay: Test F preemergence test; assay type: in vivo, Setaria viridis; settings: scale 0 to 100
Summary of the method: as §1

common ragweed [2] = assay: Test C pre-/postemergence test; assay type: in vivo, Ambrosia elation; settings: for Plant response rating, Ragweed: scale 0 to 100, 0 no effect, 100 complete control
Summary of the method: as §2

broadleaf signalgrass = assay: Test F preemergence test; assay type: in vivo, Brachiaria platyphylla; settings: scale 0 to 100
Summary of the method: as §1

naked crabgrass = assay: Test F preemergence test; assay type: in vivo, Digitaria nuda; settings: scale 0 to 100
Summary of the method: as §1

goosegrass = assay: Test F preemergence test; assay type: in vivo, Eleusine indica; settings: scale 0 to 100
Summary of the method: as §1

yellow nutsedge = assay: Test C pre-/postemergence test; assay type: in vivo, Cyperus esculentus
Summary of the method: as §2

pitted morningglory = assay: Test F preemergence test; assay type: in vivo, Ipomoea lacunosa; settings: scale 0 to 100
Summary of the method: as §1

purple nutsedge = assay: Test F preemergence test; assay type: in vivo, Cyperus rotundus; settings: scale 0 to 100
Summary of the method: as §1

itchgrass = assay: Test F preemergence test; assay type: in vivo, Rottboellia cochinchinensis; settings: scale 0 to 100
Summary of the method: as §1

[3] = Postemergence, 500 g ai/ha, 0 is no effect, 100 is complete control
[4] = Preemergence, 125 g ai/ha, 0 no effect, 100 complete control
[5] = 31 g ai/ha, Preemergence, scale 0 to 100
[6] = 62 g ai/ha, preemergence, scale 0 (no effect) to 100 (complete control)
[7] = preemergence, 125 g ai/ha, scale 0 (no effect) to 100 (complete control)
[8] = 62 g ai/ha, Preemergence, scale 0 to 100
[9] = 125 g ai/ha, preemergence, scale 0 (no effect) to 100 (complete control)
[10] = Postemergence, 62 g ai/ha, scale 0 to 100, 0 no effect, 100 complete control
[11] = Postemergence, 125 g ai/ha, scale 0 to 100, 0 no effect, 100 complete control
[12] = Postemergence, 250 g ai/ha, scale 0 to 100, 0 no effect, 100 complete control
[13] = Preemergence, 31 g ai/ha, scale 0 to 100 (0 no effect, 100 complete control)
[14] = preemergence, 250 g ai/ha, scale 0 (no effect) to 100 (complete control)

Cc1cc[n+]([O-])c(S(=O)(=O)C(C)c2c(C(F)(F)F)nn(C)c2OC(F)F)c1 (centres unmarked) [Compound 11]
Prickly Sida plant response rating (prickly sida; 62 g ai/ha, Preemergence): 95
Prickly Sida plant response rating (prickly sida; 125 g ai/ha, preemergence): 100
Plant response rating, Prickly Sida (prickly sida; Preemergence, 16 g ai/ha): 0
Plant response rating, Prickly Sida (prickly sida; Preemergence, 31 g ai/ha): 70
Crabgrass, Large plant response rating (crabgrass; Postemergence, 125 g ai/ha, 0 is no effect, 100 is complete control): 70
Crabgrass, Large plant response rating (crabgrass; [3]): 80
Crabgrass, Large plant response rating (crabgrass; [4]): 90
Plant response rating, Crabgrass, Large (crabgrass; Preemergence, 500 g ai/ha): 100
Bermudagrass plant response rating (bermudagrass; 62 g ai/ha, Preemergence): 98
Bermudagrass plant response rating (bermudagrass; 125 g ai/ha, preemergence): 100
Plant response rating, Bermudagrass (bermudagrass; Preemergence, 16 g ai/ha): 35
Plant response rating, Bermudagrass (bermudagrass; Preemergence, 31 g ai/ha): 70
Ragweed plant response rating (common ragweed [1]; 62 g ai/ha, Preemergence): 75
Ragweed plant response rating (common ragweed [1]; 125 g ai/ha, preemergence): 100
Plant response rating, Ragweed (common ragweed [1]; Preemergence, 16 g ai/ha): 30
Plant response rating, Ragweed (common ragweed [1]; Preemergence, 31 g ai/ha): 65
Kochia plant response rating (kochia; [5]): 60
Kochia plant response rating (kochia; [6]): 100
Plant response rating (0 to 100), Kochia (kochia; Preemergence, 250 g ai/ha): 100
Kochia plant response rating (kochia; [7]): 100
Foxtail, Green plant response rating (green foxtail; 62 g ai/ha, Preemergence): 80
Foxtail, Green plant response rating (green foxtail; 125 g ai/ha, preemergence): 90
Plant response rating, Foxtail, Green (green foxtail; Preemergence, 16 g ai/ha): 5
Plant response rating, Foxtail, Green (green foxtail; Preemergence, 31 g ai/ha): 35
Ragweed plant response rating (common ragweed [2]; [5]): 55
Ragweed plant response rating (common ragweed [2]; [6]): 75
Plant response rating (0 to 100), Ragweed (common ragweed [2]; Preemergence, 250 g ai/ha): 100
Ragweed plant response rating (common ragweed [2]; [7]): 95
Signalgrass plant response rating (broadleaf signalgrass; 62 g ai/ha, Preemergence): 75
Signalgrass plant response rating (broadleaf signalgrass; 125 g ai/ha, preemergence): 75
Plant response rating, Signalgrass (broadleaf signalgrass; Preemergence, 31 g ai/ha): 65
Crabgrass, Naked plant response rating (naked crabgrass; 62 g ai/ha, Preemergence): 98
Crabgrass, Naked plant response rating (naked crabgrass; 125 g ai/ha, preemergence): 100
Plant response rating, Crabgrass, Naked (naked crabgrass; Preemergence, 16 g ai/ha): 90
Plant response rating, Crabgrass, Naked (naked crabgrass; Preemergence, 31 g ai/ha): 98
Goosegrass plant response rating (goosegrass; 62 g ai/ha, Preemergence): 98
Goosegrass plant response rating (goosegrass; 125 g ai/ha, preemergence): 100
Plant response rating, Goosegrass (goosegrass; Preemergence, 16 g ai/ha): 70
Plant response rating, Goosegrass (goosegrass; Preemergence, 31 g ai/ha): 90
Nutsedge, Yellow plant response rating (yellow nutsedge; [5]): 70
Nutsedge, Yellow plant response rating (yellow nutsedge; [6]): 98
Plant response rating (0 to 100), Nutsedge, Yellow (yellow nutsedge; Preemergence, 250 g ai/ha): 100
Nutsedge, Yellow plant response rating (yellow nutsedge; [7]): 100
Morningglory plant response rating (pitted morningglory; 62 g ai/ha, Preemergence): 90
Morningglory plant response rating (pitted morningglory; 125 g ai/ha, preemergence): 100
Plant response rating, Morningglory (pitted morningglory; Preemergence, 16 g ai/ha): 0
Plant response rating, Morningglory (pitted morningglory; Preemergence, 31 g ai/ha): 30
Purple Nutsedge plant response rating (purple nutsedge; 62 g ai/ha, Preemergence): 100
Purple Nutsedge plant response rating (purple nutsedge; 125 g ai/ha, preemergence): 100
Plant response rating, Purple Nutsedge (purple nutsedge; Preemergence, 16 g ai/ha): 25
Plant response rating, Purple Nutsedge (purple nutsedge; Preemergence, 31 g ai/ha): 65
Itchgrass plant response rating (itchgrass; 62 g ai/ha, Preemergence): 70
Itchgrass plant response rating (itchgrass; 125 g ai/ha, preemergence): 95
Plant response rating, Itchgrass (itchgrass; Preemergence, 16 g ai/ha): 0
Plant response rating, Itchgrass (itchgrass; Preemergence, 31 g ai/ha): 40

CCn1nc(C(F)(F)F)c(CS(=O)(=O)c2cc(C)cc[n+]2[O-])c1OCC(F)(F)F [Compound 64]
Plant response rating, Prickly Sida (prickly sida; 16 g ai/ha, preemergence): 0
Prickly Sida plant response rating (prickly sida; 62 g ai/ha, Preemergence): 30
Prickly Sida plant response rating (prickly sida; 125 g ai/ha, preemergence): 75
Plant response rating, Prickly Sida (prickly sida; Preemergence, 31 g ai/ha): 0
Plant response rating, Crabgrass, Large (crabgrass; Postemergence, 125 g ai/ha): 80
Crabgrass, Large plant response rating (crabgrass; [3]): 90
Crabgrass, Large plant response rating (crabgrass; [4]): 80
Plant response rating, Crabgrass, Large (crabgrass; Preemergence, 500 g ai/ha): 100
Plant response rating, Bermudagrass (bermudagrass; 16 g ai/ha, preemergence): 0
Bermudagrass plant response rating (bermudagrass; 62 g ai/ha, Preemergence): 75
Bermudagrass plant response rating (bermudagrass; 125 g ai/ha, preemergence): 90
Plant response rating, Bermudagrass (bermudagrass; Preemergence, 31 g ai/ha): 25
Plant response rating, Ragweed (common ragweed [1]; 16 g ai/ha, preemergence): 0
Ragweed plant response rating (common ragweed [1]; 125 g ai/ha, preemergence): 85
Plant response rating, Ragweed (common ragweed [1]; Preemergence, 62 g ai/ha): 50
Plant response rating, Ragweed (common ragweed [1]; Preemergence, 31 g ai/ha): 30
Kochia plant response rating (kochia; [8]): 100
Kochia plant response rating (kochia; [9]): 100
Plant response rating (0 to 100), Kochia (kochia; Postemergence, 31 g ai/ha): 0
Plant response rating, Kochia (kochia; [10]): 0
Plant response rating, Kochia (kochia; [11]): 0
Plant response rating, Kochia (kochia; [12]): 0
Plant response rating, Kochia (kochia; [13]): 100
Kochia plant response rating (kochia; [14]): 100
Plant response rating, Foxtail, Green (green foxtail; 16 g ai/ha, preemergence): 15
Foxtail, Green plant response rating (green foxtail; 62 g ai/ha, Preemergence): 95
Foxtail, Green plant response rating (green foxtail; 125 g ai/ha, preemergence): 100
Plant response rating, Foxtail, Green (green foxtail; Preemergence, 31 g ai/ha): 60
Ragweed plant response rating (common ragweed [2]; [8]): 85
Ragweed plant response rating (common ragweed [2]; [9]): 100
Plant response rating (0 to 100), Ragweed (common ragweed [2]; Postemergence, 31 g ai/ha): 0
Plant response rating (0 to 100), Ragweed (common ragweed [2]; Postemergence, 62 g ai/ha): 0
Plant response rating, Ragweed (common ragweed [2]; Postemergence, 125 g ai/ha): 0
Plant response rating, Ragweed (common ragweed [2]; Postemergence, 250 g ai/ha): 0
Ragweed plant response rating (common ragweed [2]; [14]): 100
Plant response rating, Signalgrass (broadleaf signalgrass; 16 g ai/ha, preemergence): 30
Signalgrass plant response rating (broadleaf signalgrass; 125 g ai/ha, preemergence): 100
Plant response rating, Signalgrass (broadleaf signalgrass; Preemergence, 62 g ai/ha): 100
Plant response rating, Signalgrass (broadleaf signalgrass; Preemergence, 31 g ai/ha): 30
Plant response rating, Crabgrass, Naked (naked crabgrass; 16 g ai/ha, preemergence): 30
Crabgrass, Naked plant response rating (naked crabgrass; 62 g ai/ha, Preemergence): 100
Crabgrass, Naked plant response rating (naked crabgrass; 125 g ai/ha, preemergence): 100
Plant response rating, Crabgrass, Naked (naked crabgrass; Preemergence, 31 g ai/ha): 40
Plant response rating, Goosegrass (goosegrass; 16 g ai/ha, preemergence): 75
Goosegrass plant response rating (goosegrass; 62 g ai/ha, Preemergence): 90
Goosegrass plant response rating (goosegrass; 125 g ai/ha, preemergence): 98
Plant response rating, Goosegrass (goosegrass; Preemergence, 31 g ai/ha): 90
Nutsedge, Yellow plant response rating (yellow nutsedge; [8]): 98
Nutsedge, Yellow plant response rating (yellow nutsedge; [9]): 98
Plant response rating (0 to 100), Nutsedge, Yellow (yellow nutsedge; Postemergence, 31 g ai/ha): 0
Plant response rating, Nutsedge, Yellow (yellow nutsedge; [10]): 0
Plant response rating, Nutsedge, Yellow (yellow nutsedge; [11]): 0
Plant response rating, Nutsedge, Yellow (yellow nutsedge; [12]): 0
Plant response rating, Nutsedge, Yellow (yellow nutsedge; [13]): 0
Nutsedge, Yellow plant response rating (yellow nutsedge; [14]): 98
Plant response rating, Morningglory (pitted morningglory; 16 g ai/ha, preemergence): 0
Morningglory plant response rating (pitted morningglory; 62 g ai/ha, Preemergence): 0
Morningglory plant response rating (pitted morningglory; 125 g ai/ha, preemergence): 35
Plant response rating, Morningglory (pitted morningglory; Preemergence, 31 g ai/ha): 0
Plant response rating, Purple Nutsedge (purple nutsedge; 16 g ai/ha, preemergence): 20
Purple Nutsedge plant response rating (purple nutsedge; 62 g ai/ha, Preemergence): 50
Purple Nutsedge plant response rating (purple nutsedge; 125 g ai/ha, preemergence): 80
Plant response rating, Purple Nutsedge (purple nutsedge; Preemergence, 31 g ai/ha): 50
Plant response rating, Itchgrass (itchgrass; 16 g ai/ha, preemergence): 0
Itchgrass plant response rating (itchgrass; 62 g ai/ha, Preemergence): 30
Itchgrass plant response rating (itchgrass; 125 g ai/ha, preemergence): 75
Plant response rating, Itchgrass (itchgrass; Preemergence, 31 g ai/ha): 30
